# Literature values as cited in article PMC3170264 (Retrovirology, 2011).
# System: Y143 mutant HIV-1 integrase
# Details: cited from earlier work
structure (smiles),measurement,value
COc1cc2c(cc1Cc1cccc(Cl)c1F)c(=O)c(C(=O)O)cn2[C@H](CO)C(C)C [elvitegravir],activity against Y143 mutant HIV-1 integrase,fully active
